Experimental data published in ChEMBL document CHEMBL1201862, “PubChem BioAssay data set” (2004).
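Where inhibition never reached the appropriate level, the endpoint shown equals the highest concentration tested. Otherwise, values were interpolated linearly from a five-concentration, 48-hour dose response in 96-well plates. GI50 = concentration required for 50% inhibition of growth.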 Calls of active or inactive are those of the source. No stated cut-off is given here; in the data, active = GI50 up to about 1.1 µM and inactive = higher.

Tests used:
Assay in all cases: DTP human tumour cell line panel, 48 h
IGROV-1 = tested on: IGROV-1
UACC-257 = tested on: UACC-257
SN12C = tested on: SN12C
UACC-62 = tested on: UACC-62
CAKI-1 = tested on: CAKI-1
SK-MEL-5 = tested on: SK-MEL-5
OVCAR-8 = tested on: OVCAR-8
SF-268 = tested on: SF-268
NCI-H23 = tested on: NCI-H23
KM12 = tested on: KM12
TK-10 = tested on: TK-10
MOLT-4 = tested on: MOLT-4
Malme-3M = tested on: Malme-3M
HOP-62 = tested on: HOP-62
SK-MEL-2 = tested on: SK-MEL-2
HCT-116 = tested on: HCT-116

| SMILES | GI50 (IGROV-1) | GI50 (UACC-257) | GI50 (SN12C) | GI50 (UACC-62) | GI50 (CAKI-1) | GI50 (SK-MEL-5) | GI50 (OVCAR-8) | GI50 (SF-268) | GI50 (NCI-H23) | GI50 (KM12) | GI50 (TK-10) | GI50 (MOLT-4) | GI50 (Malme-3M) | GI50 (HOP-62) | GI50 (SK-MEL-2) | GI50 (HCT-116) |
| --- | --- | --- | --- | --- | --- | --- | --- | --- | --- | --- | --- | --- | --- | --- | --- | --- |
| C/N=C(\N=c1/ss/c(=N\C)n1C)N(C)C.[O-][Cl+3]([O-])([O-])O | > 100 µM (inactive) | 97.3 µM (inactive) | > 100 µM (inactive) | > 100 µM (inactive) | 78.2 µM (inactive) | > 100 µM (inactive) | 97.1 µM (inactive) | > 100 µM (inactive) | 54.6 µM (inactive) | > 100 µM (inactive) | > 100 µM (inactive) | 59.7 µM (inactive) |  |  |  |  |
| CCOC(=O)C1(C/C=C(/C)Cl)CCCC1=O (stereo unspecified) | > 100 µM (inactive) | > 100 µM (inactive) | > 100 µM (inactive) | > 100 µM (inactive) | > 100 µM (inactive) | > 100 µM (inactive) | > 100 µM (inactive) | > 100 µM (inactive) | > 100 µM (inactive) | > 100 µM (inactive) | > 100 µM (inactive) | > 100 µM (inactive) | > 100 µM (inactive) | > 100 µM (inactive) | > 100 µM (inactive) | > 100 µM (inactive) |
| COC1=CC(=O)[C@H]2[C@H](C)C(c3ccccc3)[C@@]2(C)C1=O (stereo partly specified) | > 100 µM (inactive) |  |  | > 100 µM (inactive) | > 100 µM (inactive) | > 100 µM (inactive) | > 100 µM (inactive) | > 100 µM (inactive) | > 100 µM (inactive) | > 100 µM (inactive) | > 100 µM (inactive) | > 100 µM (inactive) | > 100 µM (inactive) | > 100 µM (inactive) | > 100 µM (inactive) |  |
| N/N=C1\C(=O)N(C2CCCCC2)C(=O)C1C(=O)NC1CCCCC1 (stereo unspecified) | > 100 µM (inactive) | 87.9 µM (inactive) | 31.6 µM (inactive) | > 100 µM (inactive) | > 100 µM (inactive) | 33.7 µM (inactive) | > 100 µM (inactive) | > 100 µM (inactive) | > 100 µM (inactive) | > 100 µM (inactive) |  | > 100 µM (inactive) | > 100 µM (inactive) | > 100 µM (inactive) | 28.9 µM (inactive) | > 100 µM (inactive) |
| NC(CCc1nc(-c2ccccc2)cs1)C(=O)O (stereo unspecified) | > 100 µM (inactive) | > 100 µM (inactive) | > 100 µM (inactive) | > 100 µM (inactive) | > 100 µM (inactive) | > 100 µM (inactive) | > 100 µM (inactive) |  | > 100 µM (inactive) | > 100 µM (inactive) | > 100 µM (inactive) | > 100 µM (inactive) | > 100 µM (inactive) |  |  | > 100 µM (inactive) |
| NC1=NN(c2ccccc2)C(=O)C1/C(=N\NC(=O)c1cc2ccccc2cc1O)C(=O)Nc1nc([N+](=O)[O-])cs1 (stereo unspecified) | 19.1 µM (inactive) | 22.2 µM (inactive) | 37 µM (inactive) | 19.6 µM (inactive) | > 25.6 µM (inactive) | 20.3 µM (inactive) | 19.5 µM (inactive) | 16.7 µM (inactive) | 18.4 µM (inactive) | 30.3 µM (inactive) | 38.5 µM (inactive) | 3.6 µM (inactive) | > 65 µM (inactive) | 54 µM (inactive) | > 49.8 µM (inactive) | 32.1 µM (inactive) |
| Cc1ccc(NC(=O)CCC/C(CC(=O)c2ccc(Br)cc2)=N/NC(=O)CC#N)cc1 | > 100 µM (inactive) | > 100 µM (inactive) | > 100 µM (inactive) | > 100 µM (inactive) |  | > 100 µM (inactive) | > 100 µM (inactive) | > 100 µM (inactive) | > 100 µM (inactive) | > 100 µM (inactive) | > 100 µM (inactive) | > 100 µM (inactive) | > 100 µM (inactive) | > 100 µM (inactive) | > 100 µM (inactive) | > 100 µM (inactive) |
| COC(=O)C(CCS(=O)(=O)CC(=O)C(=O)Nc1cccc(C(C)=O)c1)C(=O)OC | > 100 µM (inactive) | > 100 µM (inactive) | > 100 µM (inactive) | > 100 µM (inactive) | > 100 µM (inactive) | > 100 µM (inactive) | > 100 µM (inactive) | 0.586 µM (active) | > 100 µM (inactive) | > 100 µM (inactive) | > 100 µM (inactive) | > 100 µM (inactive) | > 100 µM (inactive) | > 100 µM (inactive) | > 100 µM (inactive) | > 56.6 µM (inactive) |
| COC(=O)/C(=C/c1ccc(OC)cc1)C(C(=O)O)=C1CCCC1 | > 100 µM (inactive) | > 100 µM (inactive) | > 100 µM (inactive) | > 100 µM (inactive) | > 100 µM (inactive) | > 100 µM (inactive) | > 100 µM (inactive) |  | > 100 µM (inactive) | > 100 µM (inactive) | > 100 µM (inactive) | > 100 µM (inactive) |  | > 100 µM (inactive) | > 100 µM (inactive) | > 100 µM (inactive) |
| O=C1/C(=C/c2cc(O)c(O)c(O)c2)Oc2cc(O)cc(OC3OC(CO)C(O)C(O)C3O)c21 (stereo unspecified) | 36.2 µM (inactive) |  | 17.3 µM (inactive) | 16 µM (inactive) |  | 13.3 µM (inactive) | 18.2 µM (inactive) |  | 19.1 µM (inactive) | 29.6 µM (inactive) | 30.5 µM (inactive) | 19.1 µM (inactive) |  |  | 16.2 µM (inactive) | 16.3 µM (inactive) |
| Cc1nc2c3c(ccc2nc1O)C(=O)c1ccccc1C3=O | 42.9 µM (inactive) | > 100 µM (inactive) | 42.2 µM (inactive) | 55.3 µM (inactive) | 25.3 µM (inactive) | > 100 µM (inactive) | 80 µM (inactive) | 15.6 µM (inactive) | 66.7 µM (inactive) | 32.2 µM (inactive) | > 100 µM (inactive) |  | > 100 µM (inactive) | 40.4 µM (inactive) |  | 40 µM (inactive) |
| COC(=O)C1Cc2c([nH]c3ccccc23)C(C2CCCCC2)N1 (stereo unspecified) | 83.9 µM (inactive) | > 100 µM (inactive) | > 100 µM (inactive) | > 100 µM (inactive) | > 100 µM (inactive) | 52.7 µM (inactive) | > 100 µM (inactive) | > 100 µM (inactive) | > 100 µM (inactive) | > 100 µM (inactive) | > 100 µM (inactive) | > 100 µM (inactive) | > 100 µM (inactive) |  | > 100 µM (inactive) | > 100 µM (inactive) |
| C=CCc1cc(-c2cc(CC=C)c(O)c(CNCCCl)c2)cc(CNCCCl)c1O | 23.6 µM (inactive) | 17.4 µM (inactive) | 19.8 µM (inactive) | 14.6 µM (inactive) |  | 15.3 µM (inactive) | 19.9 µM (inactive) | 22.6 µM (inactive) | 16 µM (inactive) | 17.3 µM (inactive) | 19.6 µM (inactive) | 16.9 µM (inactive) | 22.2 µM (inactive) | 18 µM (inactive) | 19.2 µM (inactive) | 19.4 µM (inactive) |
| CCc1cccc(C(C)C)c1NC(=O)C(=O)C(C(=O)C(=O)OC)c1nc2ccccc2nc1O (stereo unspecified) | > 100 µM (inactive) | > 100 µM (inactive) | > 100 µM (inactive) | > 100 µM (inactive) | > 100 µM (inactive) | > 100 µM (inactive) | > 100 µM (inactive) | > 100 µM (inactive) | > 100 µM (inactive) | > 100 µM (inactive) | > 100 µM (inactive) | > 100 µM (inactive) | > 100 µM (inactive) |  | > 100 µM (inactive) | > 100 µM (inactive) |
| COc1cc2c(cc1OC)C1C=NC(C(=O)O)(C2)c2ccccc21 (stereo unspecified) | > 100 µM (inactive) | > 100 µM (inactive) | > 100 µM (inactive) | > 100 µM (inactive) | > 100 µM (inactive) | > 100 µM (inactive) | > 100 µM (inactive) | > 100 µM (inactive) | > 100 µM (inactive) | > 100 µM (inactive) | > 100 µM (inactive) | > 100 µM (inactive) | > 100 µM (inactive) | > 100 µM (inactive) |  | > 100 µM (inactive) |
| CC(C)=CCOc1ccc(-c2coc3cc4c(c(O)c3c2=O)C=CC(C)(C)O4)cc1 | 21.1 µM (inactive) | 14.3 µM (inactive) | > 100 µM (inactive) |  |  | 0.207 µM (active) | 50.7 µM (inactive) | > 100 µM (inactive) | 5.35 µM (inactive) | > 100 µM (inactive) | > 100 µM (inactive) | > 100 µM (inactive) |  | > 100 µM (inactive) |  | 6.9 µM (inactive) |
| O=[PH](O)c1cc2c3ccccc3ccc2c2ccccc12 | > 100 µM (inactive) |  | > 100 µM (inactive) | > 100 µM (inactive) |  | > 100 µM (inactive) | > 100 µM (inactive) | > 100 µM (inactive) | > 100 µM (inactive) | > 100 µM (inactive) | > 100 µM (inactive) | > 100 µM (inactive) |  | > 100 µM (inactive) |  | > 100 µM (inactive) |
| Cc1ccc2c(c1)CNc1ccc(C)cc1CN2 | > 100 µM (inactive) |  | > 100 µM (inactive) | > 100 µM (inactive) | > 100 µM (inactive) | 62.4 µM (inactive) | > 100 µM (inactive) | > 100 µM (inactive) | > 100 µM (inactive) | > 100 µM (inactive) |  | > 100 µM (inactive) |  | > 100 µM (inactive) | > 100 µM (inactive) | > 100 µM (inactive) |
| CC(=O)/C=C1\CC(=O)Nc2ccccc2N1 | > 100 µM (inactive) | > 100 µM (inactive) | > 100 µM (inactive) | > 100 µM (inactive) | > 100 µM (inactive) | > 100 µM (inactive) | > 100 µM (inactive) | > 100 µM (inactive) | > 100 µM (inactive) | > 100 µM (inactive) | > 100 µM (inactive) |  | > 100 µM (inactive) |  | > 100 µM (inactive) | > 100 µM (inactive) |
